Biological target: T1, MMP-1 (Homo sapiens, UniProt P03956)
T1 construct: made in house; host or cells: MMP-1-transfected HT-1080 cells (spent media)
T1 sequence (P03956 100-469): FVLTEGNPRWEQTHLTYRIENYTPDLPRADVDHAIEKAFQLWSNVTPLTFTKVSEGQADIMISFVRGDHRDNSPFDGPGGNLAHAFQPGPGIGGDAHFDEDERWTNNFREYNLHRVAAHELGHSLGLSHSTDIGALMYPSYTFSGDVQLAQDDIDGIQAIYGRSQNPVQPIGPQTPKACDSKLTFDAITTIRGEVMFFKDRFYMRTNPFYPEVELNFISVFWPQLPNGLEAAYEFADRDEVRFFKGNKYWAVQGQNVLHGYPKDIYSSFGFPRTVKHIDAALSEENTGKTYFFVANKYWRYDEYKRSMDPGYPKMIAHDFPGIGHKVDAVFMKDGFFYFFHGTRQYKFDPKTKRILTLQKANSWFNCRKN
Assay: In vitro MMP inhibition, Ki determination (fluorogenic substrate II)
Format: biochemical
Details: value outside parentheses; read-out: MMP-1 Ki

| SMILES | Ki [µM] |
| --- | --- |
| O=C(NO)C1(S(=O)(=O)N2CCC(c3ccc(CCC(F)(F)F)cn3)CC2)CCOCC1 [Example 367] | 9.76 |
| O=C(NO)C1(S(=O)(=O)N2CCC(c3ccc(CCCC(F)(F)F)cc3)CC2)CCOCC1 [Example 353] | 8.58 |
| O=C(NO)C1(S(=O)(=O)N2CCC(c3ccc(CCCC(F)(F)F)cn3)CC2)CCOCC1 [Example 338] | 9.86 |
| O=C(NO)C1(S(=O)(=O)N2CCC(COCC(F)(F)C(F)(F)C(F)(F)F)CC2)CCOCC1 [Example 377] | > 10 |
| Cc1ccccc1-c1cnc(N2CCN(S(=O)(=O)C3(C(=O)NO)CCOCC3)CC2)s1 [Example 348] | > 10 |
| O=C(NO)C1(S(=O)(=O)N2CCC(COCc3ccccc3)CC2)CCOCC1 [Example 373] | > 10 |
| CCCCCc1ccc(-c2cnc(N3CCN(S(=O)(=O)C4(C(=O)NO)CCOCC4)CC3)s2)cc1 [Example 380] | > 10 |
| O=C(NO)C1(S(=O)(=O)N2CCN(c3cccc(OCCCC(F)(F)F)c3)CC2)CCOCC1 [Example 355] | > 10 |
| O=C(NO)C1(S(=O)(=O)N2CCN(c3ccc(CCCC(F)(F)F)cc3F)CC2)CCOCC1 [Example 386] | > 10 |
| O=C(NO)C1(S(=O)(=O)N2CCN(c3ccc(-c4cccc(OC(F)(F)F)c4)cn3)CC2)CCOCC1 [Example 319] | > 10 |
| O=C(NO)C1(S(=O)(=O)N2CCC(N3CCN(c4ccc(Cl)cc4)CC3)CC2)CCOCC1 [Example 315] | > 10 |
| CCCCc1ccc(C2CCN(S(=O)(=O)C3(C(=O)NO)CCNCC3)CC2)nc1 [Example 388] | > 10 |
| O=C(NO)C1(S(=O)(=O)N2CCC(c3ccc(-c4ccc(C(F)(F)F)cc4)cn3)CC2)CCOCC1 [Example 395] | > 10 |
| CCCCOc1cccc(N2CCN(S(=O)(=O)C3(C(=O)NO)CCOCC3)CC2)c1 [Example 354] | > 10 |

Compounds with a lower Ki, results first:

| Ki [µM] | SMILES |
| --- | --- |
| 7.88 | O=C(NO)C1(S(=O)(=O)N2CCC(c3ccc(-c4cccnc4)cn3)CC2)CCOCC1 [Example 390] |
| 7.3 | O=C(NO)C1(S(=O)(=O)N2CCN(c3ccc(-c4ccc(OC(F)(F)F)cc4)cc3)CC2)CCOCC1 [Example 327] |
| 6.21 | CCCCc1ccc(C2CCN(S(=O)(=O)C3(C(=O)NO)CCOCC3)CC2)nc1 [Example 323] |
| 5.69 | O=C(NO)C1(S(=O)(=O)N2CCN(c3ncc(-c4ccc(C(F)(F)F)cc4)s3)CC2)CCOCC1 [Example 346] |
| 5.52 | O=C(NO)C1(S(=O)(=O)N2CCN(c3ccc(-c4ccc(F)cc4F)cn3)CC2)CCOCC1 [Example 316] |
| 5.36 | O=C(NO)C1(S(=O)(=O)N2CCC(c3ccc(OCC(F)(F)C(F)(F)F)cc3)CC2)CCOCC1 [Example 330] |
| 3.94 | O=C(NO)C1(S(=O)(=O)N2CCN(c3ncc(-c4ccc(OC(F)(F)F)cc4)s3)CC2)CCOCC1 [Example 364] |
| 3.29 | O=C(NO)C1(S(=O)(=O)N2CCC(c3ccc(OC(F)(F)C(F)F)cc3)CC2)CCOCC1 [Example 337] |
| 2.6 | O=C(NO)C1(S(=O)(=O)N2CCN(c3ncc(-c4ccc(F)cc4F)s3)CC2)CCOCC1 [Example 359] |
| 2.16 | CC(C)c1ccc(-c2cnc(N3CCN(S(=O)(=O)C4(C(=O)NO)CCOCC4)CC3)s2)cc1 [Example 366] |
| 1.86 | COC(=O)c1ccc(N2CCN(S(=O)(=O)C3(C(=O)NO)CCOCC3)CC2)cc1 [Example 324] |

Reference: patent publication US20050209278A1, “Piperidinyl- and piperazinyl-sulfonylmethyl hydroxamic acids and their use as protease inhibitors” (priority 2002, published 2005)
